The values below come from patent US7727558B2, “Polymeric delivery agents and delivery agent compounds” (Emisphere Technologies, Inc., priority 1999, dated 2010).

Where “and” joins values, the source holds several entries; their conditions need not be identical. Equal values may be shown once.

The data set is described as follows: Oral administration of rhGH with delivery agent or conjugate in rats, serum rhGH by immunoassay. Format: in vivo, Sprague-Dawley rats. The following applies: individual rat, 200 mg/kg conjugate = 20 mg/kg delivery agent. As for the experimental part:
Oral gavage (PO) and/or intracolonic (IC) dosing solutions of delivery agent compound and rhGH in water, phosphate buffer (PB) or 5% aqueous ethanol were prepared. Typically, a solution of the conjugate was prepared by mixing in water and stirred. The final dosing solutions were prepared by mixing the conjugate solution with an rhGH stock solution (typically 15 mg rhGH/ml) and diluting to the desired volume (usually 3.0 ml). The compounds and rhGH dose amounts are listed below in Table 1.
Male Sprague-Dawley rats weighing between 200-250 g were fasted for 24 hours and administered ketamine (44 mg/kg) and chlorpromazine (1.5 mg/kg) 15 minutes prior to dosing. A dosing group of five rats was administered one of the dosing solutions. For oral gavage (PO), an […] Rusch 8 French catheter was adapted to a 1 ml syringe with a pipette tip. The syringe was filled with dosing solution by drawing the solution through the catheter, which was then wiped dry. The catheter was placed down the esophagus leaving 1 cm of tubing past the rat's incisors. Solution was administered by pressing the syringe plunger. For intracolonic (IC) dosing, a 7.5 cm Rusch catheter tube (French 8 or 6) was adapted to a syringe with an Eppendorf pipette tip. The syringe was filled with the 0.5 ml dosing solution by drawing the solution through the catheter tube. The catheter tube was wiped dry. K-Y jelly was applied to the tip, avoiding contact with the eye of the tube, and the tube was inserted into the colon through the anus until the tube was no longer visible. The solution was injected by pressing the syringe plunger, and the tube was removed.
Blood samples were collected serially from the tail artery, typically at time=0, 15, 30, 45, 60 and 90 minutes for oral and 0, 10, 20, 30, 60 and 90 for IC dosing. Serum rHGH concentrations were quantified by an rHGH immunoassay test kit (Kit # K1F4015 from Genzyme Corporation Inc., Cambridge, Mass.). Previous studies indicated baseline values of about zero.
The experiments were performed at 1/10 the delivery agent concentration versus that of the conjugate. Thus, at a dose of 200 mg/kg conjugate, the actual amount of delivery agent dosed was 20 mg/kg.

For the compound `O=C(O)CCCCCCCNC(=O)c1ccccc1O` [delivery agent I], the “Serum rhGH concentration, Min15” value (15 min, listed as (a)) was 45.34 and 0 and 64.2 and 43.14 and 84.73 and 79.98 and 48.72. Moreover, the “Serum rhGH concentration, Min30” value (30 min, listed as (a)) was 46.52 and 58.44 and 18.99 and 23.44 and 13.19 and 22.69 and 1.82. Besides, the “Serum rhGH concentration, Min45” value (45 min, listed as (a)) is 35.53 and 0 (4×) and 4.29 and 18.35. The “Serum rhGH concentration, Min60” value (60 min, listed as (a)) was 34.885 and 3.922 and 10.13 and 15.93 and 10.565 and 5.49 and 7.905. Further, the “Serum rhGH concentration, Min90” value (90 min, listed as (a)) is 2.715 and 0 (5×) and 1.47. Besides, for the setting “baseline (time 0)”, the “Serum rhGH concentration, Base line” value was 0.
